Experimental data reported in PubChem BioAssay (NCI).
Values joined by “and” are separate entries in the source; they are usually repeats but may differ in a detail not shown here. Equal values may be shown once.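 All cell lines were grown in 96-well plates and treated with compound for 48 hours. GI50 marks 50% less growth. TGI: concentration producing complete growth inhibition.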

Assays:
Assay in all cases: DTP human tumour cell line panel, 48 h
NCI-H460 lung = test system: NCI-H460 lung
NCI/ADR-RES ovarian = test system: NCI/ADR-RES ovarian
MDA-MB-435 = test system: MDA-MB-435
CCRF-CEM leukemia = test system: CCRF-CEM leukemia
UO-31 renal = test system: UO-31 renal
HCT-116 colon = test system: HCT-116 colon
CAKI-1 renal = test system: CAKI-1 renal
HCC-2998 colon = test system: HCC-2998 colon
MOLT-4 leukemia = test system: MOLT-4 leukemia
T-47D breast = test system: T-47D breast

Compound | GI50 (NCI-H460 lung) [µM] | TGI (NCI-H460 lung) | GI50 (NCI/ADR-RES ovarian) | TGI (NCI/ADR-RES ovarian) | GI50 (MDA-MB-435) [µM] | TGI (MDA-MB-435) | GI50 (CCRF-CEM leukemia) [µM] | TGI (CCRF-CEM leukemia) | GI50 (UO-31 renal) [µM] | TGI (UO-31 renal) | GI50 (HCT-116 colon) [µM] | TGI (HCT-116 colon) | GI50 (CAKI-1 renal) | TGI (CAKI-1 renal) | GI50 (HCC-2998 colon) [µM] | TGI (HCC-2998 colon) [µM] | GI50 (MOLT-4 leukemia) [µM] | TGI (MOLT-4 leukemia) | GI50 (T-47D breast) | TGI (T-47D breast)
CC(O)c1cccc(NCc2c3ccccc3c(=O)n3c2oc2ccccc23)c1 (stereo not drawn) | > 100 | > 100 µM | 11.8 µM | 28.5 µM | 18.4 | > 100 µM | 3.34 | > 100 µM | 3.58 | 28.1 µM | 3.13 | 14.4 µM | 7.29 µM | > 100 µM | 11.3 | 57.2 | 5.03 | > 100 µM | 14.4 µM | 64.6 µM
COc1cc(OC)cc(C2CC(=O)Nc3c2c(C)nn3-c2nc3ccccc3[nH]2)c1 (stereo not drawn) | 2.58 | 6.1 µM | 4.47 µM | > 100 µM | 2.76 | 7.88 µM | 0.792 | > 100 µM | 3.22 | 11.4 µM | 1.97 | 4.16 µM | 3.36 µM | 11 µM | 3.7 | 56.5 | 0.0728 | 0.434 µM | 3.5 µM | > 100 µM
CC(=O)c1c(C)[nH]c(-c2nc3ccc(N4CCN(C)CC4)cc3[nH]2)c1-c1ccc(OCC2CCOCC2)cc1 | 2.39 | 19.4 µM | 1.02 µM | 30.5 µM | 0.477 | 12.2 µM | 0.654 | > 47.1 µM | 0.207 | 6.81 µM | 0.714 | 12.7 µM | 0.326 µM | 12.6 µM | 0.766 | 3.31 | 1.63 | 20.6 µM | 0.445 µM | 20.6 µM
CO[C@@H]1/C=C\C=C(/C)C(=O)NC2=CC(=O)C(NCCN(C)C)=C(C[C@@H](C)C[C@@H](OC)[C@@H](O)[C@H](C)/C=C(\C)[C@H]1OC(N)=O)C2=O | < 0.0117 | 3.61 µM and 3.76 µM | 5.55 µM and 17.7 µM | 29.6 µM and 62.7 µM | < 0.0124 | 3.1 µM and 1.32 µM | 0.0344 | 3.23 µM and 9.76 µM |  | 14 µM and 26.7 µM | 0.0192 | 1.52 µM and 2.3 µM | 0.485 µM and 1.38 µM | 12.2 µM and 29.2 µM | 0.0197 |  | 0.0444 | 1.02 µM and 8.39 µM | 0.03 µM and 0.0574 µM | 3.31 µM and 4.48 µM
ClCc1cccc(Cn2cnc3c(NC45CC6CC(CC(C6)C4)C5)ncnc32)c1 | 16 | 43 µM | 16.2 µM | 41.9 µM | 13.4 | 29.8 µM | 16 | > 69.1 µM | 14.5 | 31.4 µM | 12.6 | 30.4 µM | 16.8 µM | 33.2 µM | 16.7 | 32.2 | 9.92 | 36 µM | 15.1 µM | 36.6 µM
O=C1Nc2ccc(C(=O)c3ccco3)cc2/C1=C/c1cc(Cl)c(O)c(Cl)c1 | 4.23 | > 22.8 µM | 9.61 µM | > 25 µM | 4.11 | 24.2 µM | 1.76 | > 25 µM | 4.56 | 11.5 µM | 1.87 | > 25 µM | 1.72 µM | > 20.9 µM | 6.07 | 17.7 | 9.36 | 24.9 µM | 7.17 µM | > 25 µM
CC1(C)C2CCC3=C(CCC4(C)C5C[C@](C)(C(=O)O)CC[C@]5(C)CC[C@]34C)[C@@]2(C)CC[C@@H]1O (stereo partly drawn) |  | 30 µM |  | 36 µM |  | 63 µM |  | 36.3 µM |  | > 100 µM |  | 30.2 µM |  | 37.7 µM |  | > 100 |  | 48.9 µM |  | 38.4 µM
Cc1nc2sc(C(=O)Nc3cccc(Cl)c3C)c(N)c2cc1C(=O)/C=C/c1ccccc1 | 0.424 | 1.74 µM | 0.176 µM | 0.656 µM | 0.111 | 0.263 µM | 0.176 | > 50 µM | 0.438 | 1.1 µM | 0.186 | 0.707 µM | 0.417 µM | 1.17 µM | 0.827 | 1.57 | 0.76 | > 50 µM | 0.767 µM | 2.4 µM
CSc1ccc(C2=NN(C(=O)c3ccc(F)cc3)C(c3ccc(F)cc3)C2)cc1 (stereo not drawn) | 13 | 28.7 µM | 16 µM | 33 µM | 10.6 | 26.8 µM | 2.24 | 6.52 µM | 12.6 | 25.1 µM | 3.61 | 12.7 µM | 16.6 µM | 37.5 µM | 12.3 | 25.6 | 12.3 | 38.2 µM | 12.2 µM | 31.2 µM
